For one molecule, Ki results are on record in publication PMC4098076 (Nature, 2014).

Structures are written as SMILES.

The assay has as its target T1, aryl hydrocarbon receptor (AhR) (Mus musculus, UniProt P30561).
T1 sequence (P30561 10-848): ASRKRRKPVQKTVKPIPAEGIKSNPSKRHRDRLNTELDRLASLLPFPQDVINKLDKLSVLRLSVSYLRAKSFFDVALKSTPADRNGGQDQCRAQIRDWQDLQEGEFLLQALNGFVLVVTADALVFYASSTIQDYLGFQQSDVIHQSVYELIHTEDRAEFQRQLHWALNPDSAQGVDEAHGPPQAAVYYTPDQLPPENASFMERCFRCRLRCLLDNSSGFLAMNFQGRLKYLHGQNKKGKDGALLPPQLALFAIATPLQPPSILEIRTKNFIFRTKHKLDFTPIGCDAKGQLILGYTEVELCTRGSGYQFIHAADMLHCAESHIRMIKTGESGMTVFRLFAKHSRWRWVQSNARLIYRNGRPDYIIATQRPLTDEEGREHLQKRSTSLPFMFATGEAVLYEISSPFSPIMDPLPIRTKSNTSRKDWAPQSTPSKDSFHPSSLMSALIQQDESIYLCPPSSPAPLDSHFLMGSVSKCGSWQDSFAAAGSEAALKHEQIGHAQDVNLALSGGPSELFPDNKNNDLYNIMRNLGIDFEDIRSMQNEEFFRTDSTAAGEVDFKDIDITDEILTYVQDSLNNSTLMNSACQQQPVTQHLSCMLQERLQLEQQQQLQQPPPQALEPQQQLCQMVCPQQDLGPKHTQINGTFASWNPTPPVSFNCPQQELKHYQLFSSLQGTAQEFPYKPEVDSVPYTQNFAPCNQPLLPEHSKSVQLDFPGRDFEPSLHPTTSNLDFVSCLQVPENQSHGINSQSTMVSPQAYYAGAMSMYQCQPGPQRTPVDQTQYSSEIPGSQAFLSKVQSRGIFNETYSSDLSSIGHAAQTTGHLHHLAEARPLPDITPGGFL
The assay is described as follows: radioligand competition with [3H]TCDD. The assay is classed as binding. For orientation: Loss of bound radioactivity is the signal in a displacement assay; it reports binding, not function.

As usually defined, the Ki is a measure of affinity in units of concentration, obtained from inhibition or displacement. `Nc1ccccc1C(=O)C[C@H](N)C(=O)O` [L-kynurenine] gave a Ki of 21.6 µM.
